Source: US11905274B2, “Receptor inhibitors, pharmaceutical compositions comprising the same and use thereof” (BEIJING TIDE PHARMACEUTICAL CO., LTD., priority 2018, dated 2024)

These compounds were tested against AT2 Receptor (AT2R) (Homo sapiens (Human), UniProt P50052) (assay: Inhibitory activity on AT2 receptor (Tag-lite HTRF, Tb-labeled AT2R cells, angiotensin receptor red agonist)). Conditions: 1 h at room temperature.
Sequence of AT2 Receptor (AT2R) (P50052 whole entry): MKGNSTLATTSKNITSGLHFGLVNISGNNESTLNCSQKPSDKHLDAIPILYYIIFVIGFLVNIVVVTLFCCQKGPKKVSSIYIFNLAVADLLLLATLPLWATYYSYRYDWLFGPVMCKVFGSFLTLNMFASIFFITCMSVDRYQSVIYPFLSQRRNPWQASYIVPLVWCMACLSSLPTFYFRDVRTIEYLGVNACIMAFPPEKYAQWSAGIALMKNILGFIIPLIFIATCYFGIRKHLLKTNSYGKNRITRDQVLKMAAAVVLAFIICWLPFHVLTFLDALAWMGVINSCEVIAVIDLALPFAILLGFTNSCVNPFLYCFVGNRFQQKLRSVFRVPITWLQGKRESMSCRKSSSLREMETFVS
Assay type: binding
`O=C(O)[C@@H]1CN(C(=O)C(c2ccccc2)c2ccccc2)CCN1C(=O)N1c2ccccc2Sc2ccccc21` [Compound C21, (S)-4-(2,2-diphenylacetyl)-1-(10H-phenothiazine-10-carbonyl)piperazine-2-carboxylic acid] showed an IC50 of 190 nM.
Compound `O=C(N1CCN(C(=O)N2c3ccccc3C=Cc3ccccc32)[C@H](c2nnn[nH]2)C1)N(c1ccccc1)c1ccccc1` [Compound C31, (S)-4-(5H-dibenzo[b,f]azepine-5-carbonyl)-N,N-diphenyl-3-(1H-tetrazol-5-yl)piperazine-1-carboxamide] has an IC50 of 219 nM.
`O=C1Nc2ccccc2N(C(=O)N2CCN(C(=O)N(c3ccccc3)c3ccccc3)C[C@H]2C(=O)O)c2ccccc21` [Compound C53, (S)-4-(diphenylcarbamoyl)-1-(11-oxo-10,11-dihydro-5H-dibenzo[b,e][1,4]diazepine-5-carbonyl)piperazine-2-carboxylic acid] gave an IC50 of 1340 nM.
`Cc1ccccc1N(C(=O)N1CCN(C(=O)N2c3ccccc3C=Cc3ccccc32)[C@H](C(=O)O)C1)c1ccccc1` [Compound C59, (S)-1-(5H-dibenzo[b,f]azepine-5-carbonyl)-4-(phenyl(orthomethylphenyl)carbamoyl) piperazine-2-carb oxylic acid] was tested, and the IC50 was 67.9 nM.
For `O=C(O)[C@@H]1CN(C(=O)N2c3ccccc3CCc3ccccc32)CCN1C(=O)N1c2ccccc2CCc2ccccc21` [Compound C76, (S)-1,4-bis(10,11-dihydro-5H-dibenzo [b,f]azepine-5-carbonyl)piperazine-2-carboxylic acid], the IC50 was 156 nM.
Work on `CCN(Cc1ccccc1)C(=O)N1CCN(C(=O)N2c3ccccc3CC(=O)c3ccccc32)[C@H](C(=O)O)C1` [Compound C78, (S)-4-(benzyl(ethyl)carbamoyl)-1-(10-oxo-10,11-dihydro-5H-dibenzo [b,f]azepine-5-carbonyl) piperazine-2-carboxylic acid] yielded an IC50 of 88.2 nM.
`CCN(Cc1ccsc1)C(=O)N1CCN(C(=O)N2c3ccccc3CC(=O)c3ccccc32)[C@H](C(=O)O)C1` [Compound C79, (S)-4-(ethyl (thiophene-3-ylmethyl)carbamoyl)-1-(10-oxo-10,ll-dihydro-5H-dibenzo[b,f]azepine-5-carbonyl) piperazine-2-carboxylic acid] showed an IC50 of 460 nM.
Work on `O=C(O)[C@@H]1CN(C(=O)C2(c3ccccc3)CCCC2)CCN1C(=O)N(c1ccccc1)c1ccccc1` [Compound C83, (S)-1-(diphenylcarbamoyl)-4-(1-phenylcyclopentanecarbonyl) piperazine-2-carboxylic acid] yielded an IC50 of 6.35 nM.
Compound `O=C(O)[C@@H]1CN(C(=O)N(c2ccccc2)c2ccccc2)CCN1C(=O)C1(O)c2ccccc2-c2ccccc21` [Compound C85, (S)-4-(diphenylcarbamoyl)-1-(9-hydroxy-9H-fluorene-9-carbonyl)piperazine-2-carboxylic acid] has an IC50 of 461 nM.
`O=C(O)[C@@H]1CN(C(=O)OCc2ccccc2)CCN1C(=O)C1(c2ccccc2)CCCCC1` [Compound C86, (S)-4-((benzyloxy)carbonyl)-1-(1-phenylcyclohexanecarbonyl) piperazine-2-carboxylic acid] showed an IC50 of 504 nM.
For `CN(Cc1ccccc1)C(=O)N1CCN(C(=O)C2(c3ccccc3)CCCCC2)[C@H](C(=O)O)C1` [Compound C87, (S)-4-(benzyl(methyl)carbamoyl)-1-(1-phenylcyclohexanecarbonyl) piperazine-2-carboxylic acid], the IC50 was 389 nM.
In the case of `CN(Cc1ccccc1)C(=O)N1CCN(C(=O)N2c3ccccc3C=Cc3ccccc32)[C@H](C(=O)O)C1` [Compound C88, (S)-4-(benzyl(methyl)carbamoyl)-1-(5H-dibenzo[b,f]azepine-5-carbonyl) piperazine-2-carboxylic acid], the IC50 is reported as 387 nM.
`O=C1Cc2ccccc2N(C(=O)N2CCN(C(=O)N(c3ccccc3F)c3ccccc3F)C[C@H]2C(=O)O)c2ccccc21` [Compound C91, (S)-4-(bis(2-fluophenyl)carbamoyl)-1-(10-oxo-10,11-dihydro-5H-dibenzo [b,f]azepine-5-carbonyl)piperazine-2-carboxylic acid] gave an IC50 of 30.7 nM.
In the case of `CN1C(=O)c2ccccc2N(C(=O)N2CCN(C(=O)N(c3ccccc3)c3ccccc3)C[C@H]2C(=O)O)c2ccccc21` [Compound C96], the IC50 is reported as 13.1 nM.
Compound `COc1ccccc1N(C(=O)N1CCN(C(=O)N2c3ccccc3C(=O)N(C)c3ccccc32)[C@H](C(=O)O)C1)c1ccccc1OC` [Compound C97, (S)-4-(bis(2-methoxyphenyl)carbamoyl)-1-(10-methyl-11-oxo-10,11-dihydro-5H-dibenzo [b,e][1,4]diazepine-5-carbonyl)piperazine-2-carboxylic acid] has an IC50 of 138 nM.
Work on `CCN1C(=O)c2ccccc2N(C(=O)N2CCN(C(=O)N(c3ccccc3)c3ccccc3)C[C@H]2C(=O)O)c2ccccc21` [Compound C98, (S)-4-(diphenylcarbamoyl)-1-(10-ethyl-11-oxo-10,11-dihydro-5H-dibenzo[b,e][1,4]diazepine-5-carbonyl) piperazine-2-carboxylic acid] yielded an IC50 of 8.18 nM.
For `CN(C)S(=O)(=O)NC(=O)[C@@H]1CN(C(=O)N(c2ccccc2)c2ccccc2)CCN1C(=O)N1c2ccccc2CC(=O)c2ccccc21` [Compound C103], the IC50 was 334 nM.
`O=C1Cc2ccccc2N(C(=O)N2CCN(C(=O)N(c3ccccc3)c3ccccc3)C[C@H]2c2nn[nH]n2)c2ccccc21` [Compound C104, (S)-4-(10-oxo-10,11-dihydro-5H-dibenzo[b,f]azepine-5-carbonyl)-N, N-diphenyl-3-(1H-tetrazol-5-yl)piperazine-1-carboxamide] gave an IC50 of 298 nM.
For `O=C1Cc2ccccc2N(C(=O)N2CCN(C(=O)N(c3ccc(F)cc3)c3ccc(F)cc3)C[C@H]2C(=O)O)c2ccccc21` [Compound C105, (S)-4-(bis(4-fluorinephenyl)carbamoyl)-1-(10-oxo-10,11-dihydro-5H-dibenzo [b,f]azepine-5-carbonyl)piperazine-2-carboxylic acid], the IC50 was 161 nM.
`CC(C(=O)N1CCN(C(=O)N2c3ccccc3CC(=O)c3ccccc32)[C@H](C(=O)O)C1)(c1ccccc1)c1ccccc1` [Compound C106, (S)-4-(2,2-diphenylpropionyl)-1-(10-oxo-10,11-dihydro-5H-dibenzo [b,f]azepine-5-carbonyl) piperazine-2-carboxylic acid] showed an IC50 of 282 nM.
With `COc1cccc(N(C(=O)N2CCN(C(=O)N3c4ccccc4CC(=O)c4ccccc43)[C@H](C(=O)O)C2)c2cccc(OC)c2)c1` [Compound C108, (S)-4-(bis(3-methoxylphenyl)carbamoyl)-1-(10-oxo-10,11-dihydro-5H-dibenzo [b,f]azepine-5-carbonyl)piperazine-2-carboxylic acid] the IC50 was 51.1 nM.
`COc1ccccc1N(C(=O)N1CCN(C(=O)N2c3ccccc3CC(=O)c3ccccc32)[C@H](C(=O)NS(=O)(=O)N(C)C)C1)c1ccccc1OC` [Compound C111, (S)-N^3-(N,N-dimethylsulphamoyl)-N^1,N^1-bis (2-methoxyphenyl)-4-(10-oxo-10,11-dihydro-5H-dibenzo[b,f]azepine-5-carbonyl) piperazine-1,3-dicarboxamide] gave an IC50 of 229 nM.
`COc1ccccc1N(C(=O)N1CCN(C(=O)N2c3ccccc3C=Cc3ccccc32)[C@H](C(=O)O)C1)c1ccccc1` [Compound C113, (S)-1-(5H-dibenzo[b,f]azepine-5-carbonyl)-4-((2-methoxylphenyl) (phenyl)carbamoyl) piperazine-2-carboxylic acid] showed an IC50 of 7.37 nM.
`O=C1Cc2ccccc2N(C(=O)N2CCN(C(=O)N(c3ccccc3)c3ccccc3)C[C@H]2C(=O)NO)c2ccccc21` [Compound C123] was tested, and the IC50 was 503 nM.
With `O=C(O)[C@@H]1CN(C(=O)N2CCC[C@@H]2c2ccccc2)CCN1C(=O)N(c1ccccc1)c1ccccc1` [Compound C128, (S)-1-(diphenylcarbamoyl)-4-((R)-2-phenylpyrrolidine-1-carbonyl) piperazine-2-carboxylic acid] the IC50 was 12.4 nM.
`O=C(O)[C@@H]1CN(C(=O)N(c2ccccc2)c2ccccc2)CCN1C(=O)N1CCC[C@H]1c1ccccc1` [Compound C129, (S)-4-(diphenylcarbamoyl)-1-((S)-2-phenylpyrrolidinyl-1-carbonyl)piperazine-2-carboxylic acid] was tested, and the IC50 was 98.6 nM.
Work on `CN(Cc1ccccc1)C(=O)N1CCN(C(=O)C(C)(c2ccccc2)c2ccccc2)[C@H](C(=O)O)C1` [Compound C133, (S)-4-(benzyl(methyl)carbamoyl)-1-(2,2-diphenylpropionyl) piperazine-2-carboxylic acid] yielded an IC50 of 24.3 nM.
In the case of `CCN(Cc1ccc(C)s1)C(=O)N1CCN(C(=O)N(c2ccccc2)c2ccccc2)[C@H](C(=O)O)C1` [Compound C134, (S)-1-(diphenylcarbamoyl)-4-(ethyl((5-methylthiophen-2-yl)methyl)carbamoyl) piperazine-2-carboxylic acid], the IC50 is reported as 18.5 nM.
`Cc1ccc(CN(C)C(=O)N2CCN(C(=O)N(c3ccccc3)c3ccccc3)[C@H](C(=O)O)C2)s1` [Compound C135, (S)-1-(diphenylcarbamoyl)-4-(methyl((5-methylthiophen-2-yl)methyl)carbamoyl)piperazine-2-carboxylic acid] showed an IC50 of 28.2 nM.
`CCN(Cc1csc(C)c1)C(=O)N1CCN(C(=O)N(c2ccccc2)c2ccccc2)[C@H](C(=O)O)C1` [Compound C137, (S)-1-(diphenylcarbamoyl)-4-(ethyl((5-methylthiophen-3-yl)methyl)carbamoyl) piperazine-2-carboxylic acid] gave an IC50 of 36.5 nM.
With `O=C(O)[C@@H]1CN(C(=O)OCc2cccs2)CCN1C(=O)N(c1ccccc1)c1ccccc1` [Compound C140, (S)-1-(diphenylcarbamoyl)-4-((thiophene-2-ylmethoxy)carbonyl) piperazine-2-carboxylic acid] the IC50 was 331 nM.
For `Cc1cc(CN(C)C(=O)N2CCN(C(=O)N(c3ccccc3)c3ccccc3)[C@H](C(=O)O)C2)sc1C` [Compound C144, (S)-4-(((4,5-dimethylthiophen-2-yl)methyl)(methyl)carbamoyl)-1-(diphenylcarbamoyl) piperazine-2-carboxylic acid], the IC50 was 98.1 nM.
For `Cc1ccc(CN(C(=O)N2CCN(C(=O)N(c3ccccc3)c3ccccc3)[C@H](C(=O)O)C2)C2CC2)s1` [Compound C145, (S)-4-(cyclopropyl((5-methylthiophen-2-yl)methyl)carbamoyl)-1-(diphenylcarbamoyl) piperazine-2-carboxylic acid], the IC50 was 3.61 nM.
